Reference: publication PMC4987650, “Structural Investigation of Park’s Nucleotide on Bacterial Translocase MraY: Discovery of Unexpected MraY Inhibitors” (Scientific Reports, 2016)

Columns and labels:
Type in all cases: biochemical
MraYBS T51A mutant = molecular target: T1, MraYBS T51A mutant (Bacillus subtilis, UniProt Q03521, T51A); experiment: HPLC-based MraY functional assay, mutant MraY; conditions: consumption of 6 in one-hour reaction
T1 construct: MBP; made in house
Description: (§1) The purified MraY from Bacillus subtilis was prepared as described in our previous reports. For 5 and 7–10, the reaction mixture containing MraYBS (10 μg/mL), C55P (200 μM) in 40 μL reaction buffer (30 mM Tris, 10 mM MgCl2, 10 mM NaCl, 0.1 mM Tween-20, 2.5% DMSO, pH 8.0) were pre-incubated at 37 °C for 15 min. The reactions were initiated by the addition of Park’s nucleotide analogues (10 μM) and incubated at 37 °C for 1 h. The reaction mixtures were added by uridine (0.01 mg/mL) as the internal standard and heated to 100 °C to stop the transferring reaction. The samples were analyzed by RP-C18 HPLC with gradient elution of 0.25 M NH4HCO3(aq)/15% MeOH in water (100:0 to 0:100) at a flow rate of 1 mL/min over 45 min, and the peaks of substrates were monitored at UV 260 nm. […] The reaction mixtures were heated to 100 °C to stop the transferring reaction, and samples were analyzed by an anion-exchange column (SAX1, Supelco Co., 5 μm, 4.6 × 250 mm) with a linear gradient elution of NH4OAc (20 mM to 1 M in MeOH) at a flow rate of 1.0 mL/min over 30 min. The fluorescent substrates were monitored with λex 466 nm/λem 535 nm by fluorescence detector. […]

MraYBS = molecular target: T2, MraYBS (Bacillus subtilis, UniProt Q03521); experiment: HPLC-based MraY functional assay (substrate activity)
T2 construct: MBP; made in house
T2 sequence (Q03521 1-324): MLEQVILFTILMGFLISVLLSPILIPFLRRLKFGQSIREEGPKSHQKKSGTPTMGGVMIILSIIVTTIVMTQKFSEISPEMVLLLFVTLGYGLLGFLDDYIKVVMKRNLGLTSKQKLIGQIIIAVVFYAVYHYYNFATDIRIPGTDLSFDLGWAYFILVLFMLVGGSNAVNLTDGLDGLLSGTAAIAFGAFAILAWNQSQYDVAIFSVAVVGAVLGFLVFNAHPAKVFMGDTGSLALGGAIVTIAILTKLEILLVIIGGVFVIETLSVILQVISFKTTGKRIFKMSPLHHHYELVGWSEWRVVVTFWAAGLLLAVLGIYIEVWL
Description: The purified MraY from Bacillus subtilis was prepared as described in our previous reports. […] […] The reaction mixtures were added by uridine (0.01 mg/mL) as the internal standard and heated to 100 °C to stop the transferring reaction. The samples were analyzed by RP-C18 HPLC with gradient elution of 0.25 M NH4HCO3(aq)/15% MeOH in water (100:0 to 0:100) at a flow rate of 1 mL/min over 45 min, and the peaks of substrates were monitored at UV 260 nm. For 6 and 11–17, the reaction mixture containing MraYBS (10 μg/mL), C55P (200 μM), 6-(7-Nitro-2,1,3-benzoxadiazol-4-ylamino)hexanoic acid (5 μM, internal standard) in 10 μL reaction buffer (30 mM Tris, 10 mM MgCl2, 10 mM NaCl, 0.1 mM Tween-20, 2.5% DMSO, pH 8.0) were pre-incubated at 37 °C for 15 min. […] The reaction mixtures were heated to 100 °C to stop the transferring reaction, and samples were analyzed by an anion-exchange column (SAX1, Supelco Co., 5 μm, 4.6 × 250 mm) with a linear gradient elution of NH4OAc (20 mM to 1 M in MeOH) at a flow rate of 1.0 mL/min over 30 min. The fluorescent substrates were monitored with λex 466 nm/λem 535 nm by fluorescence detector.

MraYBS W297A mutant = molecular target: T3, MraYBS W297A mutant (Bacillus subtilis, UniProt Q03521, W297A); experiment: HPLC-based MraY functional assay, mutant MraY; conditions: consumption of 6 in one-hour reaction
T3 construct: MBP; made in house
Description: as §1

MraYBS R281A mutant = molecular target: T4, MraYBS R281A mutant (Bacillus subtilis, UniProt Q03521, R281A); experiment: HPLC-based MraY functional assay, mutant MraY; conditions: consumption of 6 in one-hour reaction
T4 construct: MBP; made in house
Description: as §1

MraYBS Q271A mutant = molecular target: T5, MraYBS Q271A mutant (Bacillus subtilis, UniProt Q03521, Q271A); experiment: HPLC-based MraY functional assay, mutant MraY; conditions: consumption of 6 in one-hour reaction
T5 construct: MBP; made in house
Description: as §1

MraYBS K102A mutant = molecular target: T6, MraYBS K102A mutant (Bacillus subtilis, UniProt Q03521, K102A); experiment: HPLC-based MraY functional assay, mutant MraY; conditions: consumption of 6 in one-hour reaction
T6 construct: MBP; made in house
Description: as §1

MraYBS F228A mutant = molecular target: T7, MraYBS F228A mutant (Bacillus subtilis, UniProt Q03521, F228A); experiment: HPLC-based MraY functional assay, mutant MraY; conditions: consumption of 6 in one-hour reaction
T7 construct: MBP; made in house
Description: as §1

MraYBS T53A mutant = molecular target: T8, MraYBS T53A mutant (Bacillus subtilis, UniProt Q03521, T53A); experiment: HPLC-based MraY functional assay, mutant MraY; conditions: consumption of 6 in one-hour reaction
T8 construct: MBP; made in house
Description: as §1

Question: How did the Relative activity (MraYBS T51A mutant) turn out when `CC(=O)N[C@H]1[C@@H](OP(=O)(O)OP(=O)(O)OC[C@H]2O[C@@H](n3ccc(=O)[nH]c3=O)[C@H](O)[C@@H]2O)O[C@H](CO)[C@@H](O)[C@@H]1O[C@H](C)C(=O)N[C@@H](C)C(=O)N[C@H](CCC(=O)N[C@@H](CCCCNC(=O)CCCCCNc1ccc([N+](=O)[O-])c2nonc12)C(=O)N[C@H](C)C(=O)N[C@H](C)C(=O)O)C(=O)O` [Compound 6, NBD-Park’s nucleotide] was run?
Answer: 60%

Question: What about the substrate consumption (MraYBS; C55P (200 μM) as polyprenyl phosphate substrate, substrate 10 μM, within 1 h (60 min)) of the same compound?
Answer: completely consumed

Question: And the Relative activity (MraYBS; WT MraYBS, consumption of 6 in one-hour reaction)?
Answer: 100%

Question: What about the Relative activity (MraYBS W297A mutant) of the same compound?
Answer: 17%

Question: What about the Relative activity (MraYBS R281A mutant) of the same compound?
Answer: 81%

Question: And the Relative activity (MraYBS Q271A mutant)?
Answer: 16%

Question: And the Relative activity (MraYBS K102A mutant)?
Answer: 33%

Question: What about the Relative activity (MraYBS F228A mutant) of the same compound?
Answer: 98%

Question: And the Relative activity (MraYBS T53A mutant)?
Answer: 18%
